Read-outs that look alike come from different tables or passages of the source.
Columns and labels:
CYP3A4 = test: Cytochrome P450 induction screening assay, mRNA induction in human cryopreserved hepatocytes; assay type: in vitro ADME; conditions: 24 hours exposure
Source text: Induction of cytochrome P450 enzymes is associated with an increased prevalence of clinical drug-drug interactions. The clinical consequences of induction may be therapeutic failure caused by a decreased systemic exposure of the drug itself or a co-administered therapy, or toxicity as a result of increased bioactivation. Cytochrome P450 (CYP450) induction assay has been used to understand the potential drug-drug interaction liabilities in drug discovery stage. Human cryopreserved hepatocytes (Life Technologies, Carlsbad, USA) were thawed and cultured in collagen I coated 96-well plates with a density of 52,000 cells/well. After attachment, hepatocyte maintenance medium (HMM; Lonza, Switzerland) was changed after cells were pre-cultured overnight. […] Medium change was then performed and cells were exposed for 24 hours to test compounds, positive inducer compounds, or vehicle (0.1% DMSO), respectively. At the end of the compound exposure period, medium was removed and cells lysed using 100 μL/well MagNA Pure LC RNA isolation tissue lysis buffer (Roche Diagnostics AG, Rotkreuz, Switzerland). […] mRNA isolation was performed using the MagNA Pure 96 system (Roche Diagnostics AG, Rotkreuz, Switzerland) and the respective cellular RNA large volume kit (Roche Diagnostics AG, Rotkreuz, Switzerland) from thawed samples diluted 1:1 with PBS. […] The resulting cDNA was diluted with 40 μL of H2O before using for qRT-PCR. qRT-PCR was performed by using the forward and the reverse primer, the corresponding Universal Probe Library (all from Microsynth, Balgach, Switzerland) and the Taqman Fast advanced master mix (Applied Biosystems), on an ABI 7900 machine (Applied Biosystems). qRT-PCR Ct-values for the respective P450s were put into relation to the Ct-value of RN18S1 (microsynth, Balgach, Switzerland) of the same sample. Doing so, a respective Δct-value was calculated. Using the average of all Δct-values for the vehicle control samples, a ΔΔct-value was calculated for each sample (ΔΔct-value(sample)=Δct-value(sample)−average of Δct-value of all vehicle controls). […] The individual fold induction values were then averaged per treatment condition (usually n=3 biological replicates).

[1] = Single dose PK after 1 mg/kg intravenous dosing to rat; assay type: in vivo, Male Wister-Han Rats; conditions: IV 1 mpk
Experimental: The single dose PK in Male Wister-Han Rats was performed to assess pharmacokinetic properties of tested compounds. Two groups of animals were dosed via bolus intravenous (IV) of the respective compound. Blood samples (approximately 20 μL) were collected via Jugular vein or an alternate site at 5 min, 15 min, 30 min, 1 hr, 2 hr, 4 hr, 7 hr and 24 hr post-dose for IV group. Blood samples were placed into tubes containing EDTA-K2 anticoagulant and centrifuged at 5000 rpm for 6 min at 4° C. to separate plasma from the samples. Following centrifugation, the resulting plasma was transferred to clean tubes for bioanalysis on LC/MS/MS. The pharmacokinetic parameters were calculated using non-compartmental module of WinNonlin® Professional 6.2. […] Therefore, compounds of present invention potentially could lead to less dose frequency and lower dose in clinical application.

human TLR8 = human TLR8 (Homo sapiens (Human), UniProt Q9NR97); test: HEK-Blue-hTLR8 cells assay and selectivity index; assay type: cell-based; conditions: EC50(TLR8) value/EC50(TLR7) value
[2] = 7 hrs (row printed 8**), read-out: Mean plasma concentration
[3] = male, Wistar-Han, plasma, iv, 1 mg/kg, 0.083 h
[4] = male, Wistar-Han, plasma, iv, 1 mg/kg, 0.25 h
[5] = male, Wistar-Han, plasma, iv, 1 mg/kg, 0.5 h
[6] = male, Wistar-Han, plasma, iv, 1 mg/kg, 1 h
[7] = male, Wistar-Han, plasma, iv, 1 mg/kg, 2 h
[8] = male, Wistar-Han, plasma, iv, 1 mg/kg, 4 h

Sequence of human TLR8 (Q9NR97 27-1041): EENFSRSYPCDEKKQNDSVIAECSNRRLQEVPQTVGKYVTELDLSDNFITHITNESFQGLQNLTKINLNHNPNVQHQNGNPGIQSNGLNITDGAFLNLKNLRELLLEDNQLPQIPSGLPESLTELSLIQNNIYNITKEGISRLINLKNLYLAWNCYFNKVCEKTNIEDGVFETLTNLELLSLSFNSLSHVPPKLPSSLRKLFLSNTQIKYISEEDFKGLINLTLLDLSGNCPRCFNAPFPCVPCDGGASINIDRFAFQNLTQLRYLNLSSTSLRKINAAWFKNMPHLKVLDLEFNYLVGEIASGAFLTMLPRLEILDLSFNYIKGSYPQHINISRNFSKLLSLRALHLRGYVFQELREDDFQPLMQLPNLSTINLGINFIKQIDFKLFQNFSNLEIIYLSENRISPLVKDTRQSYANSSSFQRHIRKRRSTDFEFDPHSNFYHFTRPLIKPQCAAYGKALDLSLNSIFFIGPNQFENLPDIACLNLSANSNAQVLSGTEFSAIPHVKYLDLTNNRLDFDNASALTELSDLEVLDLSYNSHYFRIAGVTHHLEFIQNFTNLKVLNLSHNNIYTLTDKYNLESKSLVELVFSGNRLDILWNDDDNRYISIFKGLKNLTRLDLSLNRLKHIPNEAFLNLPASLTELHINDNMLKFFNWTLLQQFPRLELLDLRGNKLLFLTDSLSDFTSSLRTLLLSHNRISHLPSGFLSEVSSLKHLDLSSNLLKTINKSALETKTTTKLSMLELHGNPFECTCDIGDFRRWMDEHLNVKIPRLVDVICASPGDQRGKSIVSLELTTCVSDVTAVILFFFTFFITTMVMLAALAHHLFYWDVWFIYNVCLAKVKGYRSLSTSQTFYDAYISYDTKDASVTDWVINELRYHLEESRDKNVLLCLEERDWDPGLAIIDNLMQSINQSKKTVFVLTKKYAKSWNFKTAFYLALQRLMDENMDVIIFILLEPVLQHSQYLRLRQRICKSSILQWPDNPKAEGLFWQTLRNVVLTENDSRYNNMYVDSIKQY

Row | SMILES | Relative induction of Positive control (10 μM Rifampicin) (%) (CYP3A4) | CO [1] [nM] | concentration at 4 h [1, 2] [nM] | concentration at 0.083 h [1, 3] [nM] | concentration at 0.25 h [1, 4] [nM] | concentration at 0.5 h [1, 5] [nM] | concentration at 1 h [1, 6] [nM] | concentration at 2 h [1, 7] [nM] | concentration at 4 h [1, 8] [nM] | further results
1 | CCCS(=N)(=O)c1nc(N)c2[nH]c(=O)n(Cc3ccccc3)c2n1 (single isomer, unassigned) [Example 4-A, 6-Amino-9-benzyl-2-(propylsulfonimidoyl)-7H-purin-8-one] | −0.63 |  |  |  |  |  |  |  |  | 
2 | CCCS(=N)(=O)c1nc(N)c2[nH]c(=O)n(Cc3ccccc3)c2n1 (single isomer, unassigned) [Example 4-B, 6-Amino-9-benzyl-2-(propylsulfonimidoyl)-7H-purin-8-one] | −0.90 |  |  |  |  |  |  |  |  | 
3 | CCS(=N)(=O)c1nc(N)c2[nH]c(=O)n(Cc3ccc(Cl)cc3)c2n1 (single isomer, unassigned) [Example 70-A, 6-Amino-9-[(4-chlorophenyl)methyl]-2-(ethylsulfonimidoyl)-7H-purin-8-one] | 0.42 | 3052 | 6.28 | 3050 | 1340 | 718 | 354 | 110 | 20.5 | Selective index (human TLR8): >18518
4 | CCS(=N)(=O)c1nc(N)c2[nH]c(=O)n(Cc3ccc(Cl)cc3)c2n1 (single isomer, unassigned) [Example 70-B, 6-Amino-9-[(4-chlorophenyl)methyl]-2-(ethylsulfonimidoyl)-7H-purin-8-one] | −0.42 | 2782 | 16.7 |  |  |  |  |  |  | AUC0-inf [1]: 1.894 µM·h; CL [1]: 48.7 mL/min/kg; concentration at 4 h ([1]; 0.083 h, read-out: Mean plasma concentration): 2782 nM; concentration at 4 h ([1]; 0.25 h, read-out: Mean plasma concentration): 1434 nM; concentration at 4 h ([1]; 0.5 h, read-out: Mean plasma concentration): 862 nM; concentration at 4 h ([1]; 1 h, read-out: Mean plasma concentration): 461 nM; concentration at 4 h ([1]; 2 h, read-out: Mean plasma concentration): 173 nM; concentration at 4 h ([1]; 4 h, read-out: Mean plasma concentration): 29.1 nM
5 | CCS(=N)(=O)c1nc(N)c2[nH]c(=O)n(Cc3ccc(C)cc3)c2n1 (single isomer, unassigned) [Example 71-A, 6-Amino-2-(ethylsulfonimidoyl)-9-(p-tolylmethyl)-7H-purin-8-one] | −0.10 | 1848 |  | 1850 | 1000 | 537 | 292 | 115 | 18.2 | 

Source: patent publication US9708325B2, “Sulfonimidoylpurinone compounds and derivatives for the treatment and prophylaxis of virus infection” (Hoffmann-La Roche Inc., priority 2015, dated 2017)
